Test results: patent US20130035329A1, “THERAPEUTICALLY ACTIVE COMPOSITIONS AND THEIR METHODS OF USE” (priority 2009, published 2013)
pIC50: −log10 of the molar value.

Target: IDH1 R132H (Homo sapiens, UniProt O75874, R132H)
Test: High Throughput Screening (HTS) for IDH1 R132H inhibitors (resazurin/NADPH fluorescence assay)
Format: biochemical
Details: IDH1m; assay similar to Example 1; class symbols
Experimental: A compound described herein may be an inhibitor of IDH1m. […] B refers to an inhibitor of IDH1m with an IC50 between 1 μM and 50 μM. C refers to an inhibitor of IDH1m with an IC50 greater than 50 μM. D refers to a compound wherein an IC50 is not available.
Assays were conducted in a volume of 76 μl assay buffer (150 mM NaCl, 10 mM MgCl2, 20 mM Tris pH 7.5, 0.03% bovine serum albumin) as follows in a standard 384-well plate: To 25 ul of substrate mix (8 uM NADPH, 2 mM aKG), 1 μl of test compound was added in DMSO. The plate was centrifuged briefly, and then 25 μl of enzyme mix was added (0.2 μg/ml ICDH1 R132H) followed by a brief centrifugation and shake at 100 RPM. The reaction was incubated for 50 minutes at room temperature, then 25 μl of detection mix (30 μM resazurin, […]) was added and the mixture further incubated for 5 minutes at room temperature. The conversion of resazurin to resorufine was detected by fluorescent spectroscopy at Ex544 Em590 c/o 590.

Chain of IDH1 R132H (O75874 whole entry R132H): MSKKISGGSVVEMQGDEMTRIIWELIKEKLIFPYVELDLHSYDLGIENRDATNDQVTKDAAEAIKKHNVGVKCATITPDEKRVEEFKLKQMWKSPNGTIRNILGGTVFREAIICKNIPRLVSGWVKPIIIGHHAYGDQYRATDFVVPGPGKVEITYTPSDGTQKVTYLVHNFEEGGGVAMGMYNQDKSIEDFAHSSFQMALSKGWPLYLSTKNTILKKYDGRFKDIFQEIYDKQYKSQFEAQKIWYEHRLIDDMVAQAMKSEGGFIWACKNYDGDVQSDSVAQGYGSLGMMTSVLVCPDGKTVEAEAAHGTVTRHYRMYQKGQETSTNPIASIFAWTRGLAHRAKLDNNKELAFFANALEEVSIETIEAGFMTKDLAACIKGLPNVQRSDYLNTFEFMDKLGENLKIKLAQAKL

Row | Structure (SMILES) | pIC50
1 | CCCCc1ccc(NS(=O)(=O)c2ccc(C)c(C(=O)N3CCN(c4ccncc4)CC3)c2)cc1 | 4.30 to 6.00
2 | CCCCc1ccc(NS(=O)(=O)c2cccc(C(=O)N3CCN(c4ccccc4OC)CC3)c2)cc1 | 4.30 to 6.00
3 | CCCCc1ccc(NS(=O)(=O)c2ccc(C)c(C(=O)N3CCN(c4ccccc4Cl)CC3)c2)cc1 | > 6.00
4 | CCCCc1ccc(NS(=O)(=O)c2cccc(C(=O)N3CCN(c4ccncc4)CC3)c2)cc1 | 4.30 to 6.00
5 | COc1ccccc1N1CCN(C(=O)c2cc(S(=O)(=O)Nc3ccc(OC(C)C)cc3)ccc2C)CC1 | 4.30 to 6.00
6 | COc1ccccc1N1CCN(C(=O)c2cc(S(=O)(=O)Nc3ccc(C(C)(C)C)cc3)ccc2C)CC1 | 4.30 to 6.00
7 | CCOc1ccc(NS(=O)(=O)c2ccc(C)c(C(=O)N3CCN(c4ccccc4OC)CC3)c2)cc1 | 4.30 to 6.00
8 | COc1ccc(NS(=O)(=O)c2ccc(C)c(C(=O)N3CCN(c4ccccc4OC)CC3)c2)cc1 | 4.30 to 6.00
9 | CCCCc1ccc(NS(=O)(=O)c2ccc(C)c(C(=O)N3CCN(c4cccnc4OC)CC3)c2)cc1 | 4.30 to 6.00
10 | CCCc1ccc(NS(=O)(=O)c2ccc(C)c(C(=O)N3CCN(c4ccccc4OC)CC3)c2)cc1 | 4.30 to 6.00
11 | COc1ccccc1N1CCN(C(=O)c2cc(S(=O)(=O)Nc3ccc(CCc4ccccc4)cc3)ccc2C)CC1 | 4.30 to 6.00
12 | CCCCc1ccc(NS(=O)(=O)c2ccc(F)c(C(=O)N3CCN(c4ccccc4OC)CC3)c2)cc1 | 4.30 to 6.00
13 | CCCCc1ccc(NS(=O)(=O)c2ccc(C)c(C(=O)N3CCN(C(=O)NCC(C)C)CC3)c2)cc1 | 4.30 to 6.00
14 | CCCCc1ccc(NS(=O)(=O)c2ccc(C)c(C(=O)N3CCN(Cc4cccc(C)c4)CC3)c2)cc1 | 4.30 to 6.00
15 | CCCCc1ccc(NS(=O)(=O)c2ccc(C)c(C(=O)N3CCN(C(=O)C4CC4)CC3)c2)cc1 | 4.30 to 6.00
16 | CCCCc1ccc(NS(=O)(=O)c2ccc(C)c(C(=O)N3CCN(C(=O)c4cscn4)CC3)c2)cc1 | 4.30 to 6.00
17 | CCCCc1ccc(NS(=O)(=O)c2ccc(C)c(C(=O)N3CCN(Cc4ccccc4C)CC3)c2)cc1 | 4.30 to 6.00
18 | CCCCc1ccc(NS(=O)(=O)c2ccc(C)c(C(=O)N3CCN(Cc4cc(C)c(C)cc4C)CC3)c2)cc1 | 4.30 to 6.00
19 | CCCCc1ccc(NS(=O)(=O)c2ccc(C)c(C(=O)N3CCN(C(=O)OCC)CC3)c2)cc1 | 4.30 to 6.00
20 | CCCCc1ccc(NS(=O)(=O)c2ccc(C)c(C(=O)N3CCN(CCCc4ccccc4)CC3)c2)cc1 | 4.30 to 6.00
21 | CCCCc1ccc(NS(=O)(=O)c2cccc(C(=O)N3CCN(c4ccccc4OC)CC3)c2)c(C(=O)O)c1 | 4.30 to 6.00

Row | Structure (SMILES) | pIC50
22 | CCCCc1ccc(NS(=O)(=O)c2ccc(C)c(C(=O)N3CCN(c4ccc(F)cc4)CC3)c2)cc1 | 4.30 to 6.00
23 | CCCCc1ccc(NS(=O)(=O)c2ccc(C)c(C(=O)N3CCN(c4cccc(C(F)(F)F)c4)CC3)c2)cc1 | 4.30 to 6.00
24 | CCCCc1ccc(NS(=O)(=O)c2ccc(C)c(C(=O)N3CCN(c4ccc(OC)c(F)c4)CC3)c2)cc1 | 4.30 to 6.00
25 | COc1ccccc1N1CCN(C(=O)c2cc(S(=O)(=O)Nc3cccc4cccnc34)ccc2C)CC1 | 4.30 to 6.00
26 | COc1ccccc1N1CCN(C(=O)c2cc(S(=O)(=O)Nc3cccc4cc[nH]c34)ccc2C)CC1 | 4.30 to 6.00
27 | CCCCc1ccc(NS(=O)(=O)c2ccc(C)c(C(=O)N3CCN(c4ccccc4OCc4ccccc4)CC3)c2)cc1 | 4.30 to 6.00
28 | CCCCc1ccc(NS(=O)(=O)c2ccc(C)c(C(=O)N3CCN(c4ccccc4Oc4ccccc4)CC3)c2)cc1 | 4.30 to 6.00
29 | CCOC(=O)COc1ccc(NS(=O)(=O)c2ccc(C)c(C(=O)N3CCN(c4ccccc4OC)CC3)c2)cc1 | 4.30 to 6.00
30 | CCOC(=O)C(C)Oc1ccc(NS(=O)(=O)c2ccc(C)c(C(=O)N3CCN(c4ccccc4OC)CC3)c2)cc1 (stereo not drawn) | 4.30 to 6.00
31 | CCCCc1ccc(NS(=O)(=O)c2ccc(C)c(C(=O)N3CCN(c4ccnc(N(C)C)c4)CC3)c2)cc1 | 4.30 to 6.00
32 | CCCCc1ccc(NS(=O)(=O)c2ccc(C)c(C(=O)N3CCN(c4c(Cl)cccc4Cl)CC3)c2)cc1 | 4.30 to 6.00
33 | CCCCc1ccc(NS(=O)(=O)c2ccc(C)c(C(=O)N3CCN(c4ccccc4OCCc4ccccc4)CC3)c2)cc1 | 4.30 to 6.00
34 | CCCCc1ccc(NS(=O)(=O)c2ccc(C)c(C(=O)N3CCN(c4ccccc4OCC(C)C)CC3)c2)cc1 | 4.30 to 6.00
35 | COC(=O)C(C)Nc1ccc(NS(=O)(=O)c2ccc(C)c(C(=O)N3CCN(c4ccccc4OC)CC3)c2)cc1 (stereo not drawn) | 4.30 to 6.00
36 | CCCCc1ccc(NS(=O)(=O)c2ccc(C)c(C(=O)N3CCN(c4ccc(OC)c(OC)c4)CC3)c2)cc1 | 4.30 to 6.00
37 | CCCCc1ccc(NS(=O)(=O)c2ccc(Br)c(C(=O)N3CCN(c4ccccc4OC)CC3)c2)cc1 | 4.30 to 6.00
38 | COCOc1ccc(NS(=O)(=O)c2ccc(C)c(C(=O)N3CCN(c4ccccc4C)CC3)c2)cc1 | 4.30 to 6.00
39 | COCCOCOc1ccc(NS(=O)(=O)c2ccc(C)c(C(=O)N3CCN(c4ccccc4C)CC3)c2)cc1 | 4.30 to 6.00
40 | CCCCc1ccc(NS(=O)(=O)c2ccc(C)c(C(=O)N3CCN(c4c(C)cccc4C)CC3)c2)cc1 | 4.30 to 6.00
41 | CCCCc1ccc(NS(=O)(=O)c2ccc(C)c(C(=O)N3CCN(c4ccccc4OC)CC3)c2)c(N(C)C)c1 | 4.30 to 6.00
42 | CCCCc1ccc(NS(=O)(=O)c2cc3c(c(C(=O)N4CCN(c5ccccc5OC)CC4)c2)OCCN3)cc1 | 4.30 to 6.00

Row | Structure (SMILES) | pIC50
43 | C=Cc1ccc(S(=O)(=O)Nc2ccc(CCCC)cc2)cc1C(=O)N1CCN(c2ccccc2OC)CC1 | 4.30 to 6.00
44 | C#CCc1ccc(S(=O)(=O)Nc2ccc(CCCC)cc2)cc1C(=O)N1CCN(c2ccccc2OC)CC1 | 4.30 to 6.00
45 | COc1ccccc1N1CCN(C(=O)c2cc(S(=O)(=O)Nc3ccc(C)c4cc[nH]c34)ccc2C)CC1 | 4.30 to 6.00
46 | COc1ccccc1N1CCN(C(=O)c2cccc(S(=O)(=O)Nc3ccccc3)c2)CC1 | < 4.30
47 | O=C(c1cccc(S(=O)(=O)Nc2ccc(Cl)cc2)c1)N1CCN(c2ccccc2)CC1 | < 4.30
48 | COc1ccccc1NS(=O)(=O)c1cccc(C(=O)N2CCN(c3ccccc3)CC2)c1 | < 4.30
49 | COc1ccccc1NS(=O)(=O)c1cccc(C(=O)N2CCN(c3ccccc3OC)CC2)c1 | < 4.30
50 | COc1ccccc1N1CCCN(C(=O)c2cccc(S(=O)(=O)Nc3ccc(Cl)cc3)c2)CC1 | < 4.30
51 | Cc1ccc(NS(=O)(=O)c2cccc(C(=O)N3CCN(c4ccccc4)CC3)c2)cc1 | < 4.30
52 | O=C(c1cccc(S(=O)(=O)Nc2ccccc2F)c1)N1CCN(c2ccccn2)CC1 | < 4.30
53 | COc1ccccc1N1CCCN(C(=O)c2cccc(S(=O)(=O)Nc3ccccc3F)c2)CC1 | 4.30 to 6.00
54 | COc1ccccc1N1CCN(C(=O)c2cc(S(=O)(=O)Nc3ccccc3)ccc2C)CC1 | < 4.30
55 | COc1ccc(NS(=O)(=O)c2cccc(C(=O)N3CCCN(c4ccccc4OC)CC3)c2)cc1 | < 4.30
56 | Cc1cc(F)ccc1NS(=O)(=O)c1cccc(C(=O)N2CCN(c3ccccc3)CC2)c1 | < 4.30
57 | Cc1ccc(S(=O)(=O)Nc2ccccc2F)cc1C(=O)N1CCN(c2ccccn2)CC1 | < 4.30
58 | COc1ccccc1N1CCCN(C(=O)c2cccc(S(=O)(=O)Nc3ccc(C)cc3)c2)CC1 | < 4.30
59 | COc1ccccc1N1CCN(C(=O)c2cc(S(=O)(=O)Nc3ccccc3F)ccc2C)CC1 | < 4.30
60 | COc1ccc(NS(=O)(=O)c2ccc(C)c(C(=O)N3CCN(c4ccccn4)CC3)c2)cc1 | < 4.30
61 | CCCCc1ccc(NS(=O)(=O)c2ccc(Cl)c(C(=O)N3CCN(C(C)=O)CC3)c2)cc1 | < 4.30
62 | COc1ccccc1N1CCN(C(=O)c2cc(S(=O)(=O)Nc3ccc(CCN4CCCC4)cc3)ccc2C)CC1 | < 4.30
63 | CCCCc1ccc(C(=O)Nc2cccc(C(=O)N3CCN(c4ccccc4OC)CC3)c2)cc1 | 4.30 to 6.00
